These results are taken from ChEMBL document CHEMBL5316343, “Design, Synthesis, and Biological Evaluation of a Potent Dual EZH2-BRD4 Inhibitor for the Treatment of Some Solid Tumors” (J Med Chem, 2023).

Series [1] in a line: Toxicity in Balb/c nude mouse xenografted with human BXPC-3 cells assessed as effect on body weight at 30 to 60 mg/kg, ip administered daily for 30 days. Format: organism-based. Particulars: in vivo, 720 h, dose 30-60 mg/kg, time 30 day.
Series [2] can be described thus: Tmax in ICR mouse at 60 mg/kg, ip measured upto 24 hrs by LC-MS/MS analysis. Format: ADME, organism-based. Particulars: in vivo.
The test system of series [3] is BXPC-3. Briefly: Induction of apoptosis in human BXPC-3 cells assessed as late apoptotic cells at 1 uM incubated for 48 hrs by Annexin V-FITC/PI staining based flow cytometric analysis (reference value: 4.38 %). In kind it is functional.
Series [4] relates to BXPC-3. Briefly: Antiproliferative activity against human BXPC-3 cells assessed as inhibition of cell proliferation incubated for 6 days by CCK8 assay. Particulars: time 6.0 day. Format: functional, cell-based.
The subject of series [5] is BXPC-3. Put plainly: Induction of apoptosis in human BXPC-3 cells assessed as viable cells at 2.5 uM incubated for 48 hrs by Annexin V-FITC/PI staining based flow cytometric analysis (reference value: 90.70%). In kind it is functional. Particulars: read-out: Activity.
A short description of series [6]: Protein binding in mouse plasma assessed as bound fraction at 2 uM incubated for 5 hrs by equilibrium based LC-MS/MS analysis. In kind it is ADME, cell-free. Particulars: read-out: PPB (converted).
Series [7] deals with PLC-PRF-5. Briefly: Antiproliferative activity against human PLC-PRF-5 cells assessed as inhibition of cell proliferation incubated for 6 days by CCK8 assay. In kind it is functional, cell-based. Particulars: time 6.0 day.
Series [8] deals with T1, Histone-lysine N-methyltransferase EZH1 (Homo sapiens, UniProt Q92800).
T1 sequence (Q92800 whole entry): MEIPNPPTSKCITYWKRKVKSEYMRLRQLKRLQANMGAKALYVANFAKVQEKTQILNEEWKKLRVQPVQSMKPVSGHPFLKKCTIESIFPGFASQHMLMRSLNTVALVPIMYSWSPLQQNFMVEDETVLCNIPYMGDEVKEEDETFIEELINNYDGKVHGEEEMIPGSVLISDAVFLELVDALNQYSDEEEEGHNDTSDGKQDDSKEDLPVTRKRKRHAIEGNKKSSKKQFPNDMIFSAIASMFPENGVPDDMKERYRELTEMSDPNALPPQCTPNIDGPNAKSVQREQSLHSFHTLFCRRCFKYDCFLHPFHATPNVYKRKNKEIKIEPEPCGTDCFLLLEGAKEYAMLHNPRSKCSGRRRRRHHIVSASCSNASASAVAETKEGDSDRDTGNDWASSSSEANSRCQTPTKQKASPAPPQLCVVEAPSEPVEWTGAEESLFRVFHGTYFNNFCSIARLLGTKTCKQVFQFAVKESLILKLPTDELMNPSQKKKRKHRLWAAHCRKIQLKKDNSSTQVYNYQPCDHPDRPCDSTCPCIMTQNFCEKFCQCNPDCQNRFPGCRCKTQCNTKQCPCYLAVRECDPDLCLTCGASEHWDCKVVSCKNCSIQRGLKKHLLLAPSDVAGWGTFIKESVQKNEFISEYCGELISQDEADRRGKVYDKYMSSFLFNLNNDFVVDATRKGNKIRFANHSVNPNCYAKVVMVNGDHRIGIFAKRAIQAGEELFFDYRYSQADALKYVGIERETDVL
Put plainly: Inhibition of EZH1 (unknown origin) by radiometric assay.

In series [9] the test system is BXPC-3. Briefly: Antitumor activity against human BXPC-3 cells xenografted in Balb/c nude mouse assessed as reduction in tumor growth at 60 mg/kg, ip administered daily for 30 days. Format: functional, organism-based. Particulars: time 30.0 day.
Series [10] relates to MDA-MB-231. Briefly: Induction of apoptosis in human MDA-MB-231 cells assessed as necrotic cells at 2.5 uM incubated for 48 hrs by Annexin V-FITC/PI staining based flow cytometric analysis (reference value: 0.63%). In kind it is functional.
The nature of series [11]: AUC(0 to infinity) in ICR mouse at 60 mg/kg, ip measured upto 24 hrs by LC-MS/MS analysis. In kind it is ADME, organism-based. Also on record: time < 24 hrs, dose 60 mg/kg, route ip. Particulars: in vivo.
Series [12] relates to Mus musculus. Put plainly: In vivo inhibition of EZH2 in Balb/c nude mouse xenografted with human BXPC-3 cells assessed as reduction in H3K27me3 level in tumor at 60 mg/kg, ip administered daily for 30 days by IHC analysis. Particulars: time 30.0 day. Format: functional, organism-based.
The test system of series [13] is BXPC-3. Briefly: Induction of apoptosis in human BXPC-3 cells assessed as early apoptotic cells at 5 uM incubated for 48 hrs by Annexin V-FITC/PI staining based flow cytometric analysis (reference value: 3.28 %). In kind it is functional.
Series [14] concerns A549. Put plainly: Antiproliferative activity against human A549 cells assessed as inhibition of cell proliferation incubated for 6 days by CCK8 assay. In kind it is functional, cell-based. Particulars: time 6.0 day.
In series [15] the test system is BXPC-3. Put plainly: Induction of apoptosis in human BXPC-3 cells assessed as late apoptotic cells at 2.5 uM incubated for 48 hrs by Annexin V-FITC/PI staining based flow cytometric analysis (reference value: 4.38 %). Format: functional.
Series [16] deals with MDA-MB-231. Briefly: Induction of apoptosis in human MDA-MB-231 cells assessed as viable cells at 2.5 uM incubated for 48 hrs by Annexin V-FITC/PI staining based flow cytometric analysis (reference value: 97.63%). Format: functional. Particulars: read-out: Activity.
For series [17], the system named is MDA-MB-231. Put plainly: Induction of cell cycle arrest in human MDA-MB-231 cells assessed as accumulation of cells at G0/G1 phase at 1 to 5 uM incubated for 48 hrs by flow cytometric analysis. Particulars: dose 1-5 µM. In kind it is functional, cell-based.
The subject of series [18] is T-24. Put plainly: Antiproliferative activity against human T24 cells assessed as inhibition of cell proliferation incubated for 6 days by CCK8 assay. Format: functional, cell-based. Particulars: time 6.0 day.
For series [19], the target named is T2, Histone-lysine N-methyltransferase EZH2 (Homo sapiens, UniProt Q15910). Briefly: Inhibition of EZH2 in human MDA-MB-231 cells assessed as increase in H3K27ac level at 5 uM by fluorescence based analysis. Format: cell-based.
Target sequence in this assay (Q15910 whole entry, looked up): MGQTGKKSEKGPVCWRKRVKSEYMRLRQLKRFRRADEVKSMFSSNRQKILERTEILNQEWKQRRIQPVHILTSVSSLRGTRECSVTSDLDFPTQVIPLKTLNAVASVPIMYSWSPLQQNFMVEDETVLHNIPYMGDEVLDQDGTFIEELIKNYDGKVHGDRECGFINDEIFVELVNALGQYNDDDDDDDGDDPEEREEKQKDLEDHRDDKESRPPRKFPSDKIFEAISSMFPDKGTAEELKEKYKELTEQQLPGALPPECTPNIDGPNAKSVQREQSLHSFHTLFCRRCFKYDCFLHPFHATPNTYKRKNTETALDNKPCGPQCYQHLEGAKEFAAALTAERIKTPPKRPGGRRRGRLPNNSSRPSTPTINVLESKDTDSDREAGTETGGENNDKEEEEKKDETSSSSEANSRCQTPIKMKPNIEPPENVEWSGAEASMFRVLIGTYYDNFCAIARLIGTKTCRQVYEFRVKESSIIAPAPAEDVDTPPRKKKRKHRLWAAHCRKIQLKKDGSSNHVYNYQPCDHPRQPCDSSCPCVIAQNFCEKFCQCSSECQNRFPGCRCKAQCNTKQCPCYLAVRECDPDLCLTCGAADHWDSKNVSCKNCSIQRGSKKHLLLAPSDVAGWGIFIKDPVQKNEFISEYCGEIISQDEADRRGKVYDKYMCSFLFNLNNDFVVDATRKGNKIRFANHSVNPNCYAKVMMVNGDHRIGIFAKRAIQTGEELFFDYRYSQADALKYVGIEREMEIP
In series [20] the target is T2, Histone-lysine N-methyltransferase EZH2. Put plainly: Inhibition of EZH2 (unknown origin) by radiometric assay.
Target sequence in this assay (Q15910 whole entry): as the sequence (Q15910 whole entry, looked up) above
A short description of series [21]: MRT(0 to t) in ICR mouse at 60 mg/kg, ip measured upto 24 hrs by LC-MS/MS analysis. Format: ADME, organism-based. Particulars: in vivo.
In series [22] the test system is MDA-MB-231. Briefly: Induction of apoptosis in human MDA-MB-231 cells assessed as late apoptotic cells at 5 uM incubated for 48 hrs by Annexin V-FITC/PI staining based flow cytometric analysis (reference value: 1.06%). Format: functional.
The subject of series [23] is MDA-MB-231. Briefly: Inhibition of cell proliferation in human MDA-MB-231 cells assessed as decrease in c-Myc protein level at 5 uM incubated for 48 hrs by IHC analysis. In kind it is functional, cell-based.

Molecules are shown by their SMILES. The source made the active and inactive calls. The rule behind the calls is not given here.

On to `CCC(C)n1ccc2c(C(=O)NCc3c(C)cc(C)[nH]c3=O)cc(-c3cn(C)c(=O)c4[nH]ccc34)cc21` (stereo not drawn), for which the Activity result is listed as “Non-Toxic” in series [1]; 7.61% in series [3]; 1.38% in series [10]; 10.73% in [13]; 16.95% in series [15]; 3.82% in series [22]. For the same compound, the Tmax in series [2] is 4.98 min. The outcome in series [4], in series [7], in [9], in series [14], in [17] and in series [18] was Active. Further, the viability at 2.5 µM in series [5] stood at 71%; in series [16], 87.8%. For the same compound, in [6], the fraction unbound at 5 h, 2 µM is 0.009. Moreover, the IC50 in [8] was found to be 2580 nM; in series [20], 2.3 nM. The compound further displayed a total exposure AUC(0-inf) in series [11] of 2000 ng·h/mL. For the same compound, the inhibition result in series [12], in series [19] and in series [23] was “Active” throughout. In [21], this compound returned a mean residence time MRT last at 24 h of 2.55 h.
